# Data taken from US11739098B2 (BRISTOL-MYERS SQUIBB COMPANY, priority 2017, dated 2023).
# Legend:
# Assay type in all cases: cell-based
# human TLR7 = target: T1, human TLR7 (Homo sapiens, UniProt Q9NYK1); experiment: TLR7 inhibition reporter assay (HEK-Blue cells, SEAP reporter, gardiquimod stimulation); conditions: HEK-Blue cells overexpressing human TLR7, SEAP reporter, gardiquimod 7.5 μM
# T1 construct: host or cells: HEK-Blue cells (HEK293-derived reporter line)
# T1 sequence (Q9NYK1 27-1049): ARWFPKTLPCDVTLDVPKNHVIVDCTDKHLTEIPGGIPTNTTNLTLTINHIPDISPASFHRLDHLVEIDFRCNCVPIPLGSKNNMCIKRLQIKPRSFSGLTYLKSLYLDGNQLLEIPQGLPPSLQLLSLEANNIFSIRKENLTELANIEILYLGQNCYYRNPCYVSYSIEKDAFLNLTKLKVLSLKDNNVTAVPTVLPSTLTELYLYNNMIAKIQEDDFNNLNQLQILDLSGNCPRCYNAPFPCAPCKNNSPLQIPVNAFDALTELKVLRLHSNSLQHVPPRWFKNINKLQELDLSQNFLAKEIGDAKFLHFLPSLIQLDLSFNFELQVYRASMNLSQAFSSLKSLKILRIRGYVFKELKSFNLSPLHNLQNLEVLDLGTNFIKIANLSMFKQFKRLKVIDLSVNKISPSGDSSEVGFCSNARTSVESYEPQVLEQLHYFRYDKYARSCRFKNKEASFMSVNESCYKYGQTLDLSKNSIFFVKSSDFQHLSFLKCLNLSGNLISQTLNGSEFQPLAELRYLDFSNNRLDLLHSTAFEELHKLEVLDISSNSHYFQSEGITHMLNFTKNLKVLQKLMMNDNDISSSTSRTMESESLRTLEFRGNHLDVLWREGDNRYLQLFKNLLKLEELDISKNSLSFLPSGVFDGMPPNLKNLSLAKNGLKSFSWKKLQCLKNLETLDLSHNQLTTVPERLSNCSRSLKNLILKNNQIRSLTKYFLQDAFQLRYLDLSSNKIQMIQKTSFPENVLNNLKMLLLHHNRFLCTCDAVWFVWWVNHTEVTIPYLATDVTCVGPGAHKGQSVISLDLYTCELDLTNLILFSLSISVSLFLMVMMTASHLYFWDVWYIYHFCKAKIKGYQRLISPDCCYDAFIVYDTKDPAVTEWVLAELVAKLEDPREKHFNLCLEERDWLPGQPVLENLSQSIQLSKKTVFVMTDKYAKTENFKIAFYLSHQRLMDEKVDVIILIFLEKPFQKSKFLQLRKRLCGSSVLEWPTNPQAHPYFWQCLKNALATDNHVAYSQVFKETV
# Procedure, shortened: (§1)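 After 22 h at 37 °C, SEAP secretion was measured from human TLR7-, TLR8- or TLR9-expressing HEK-Blue reporter cells given compound (0.05 nM–50 μM) 30 min before agonist: 7.5 μM gardiquimod, 15.9 μM R848 or 5 nM ODN2006 respectively. Percent inhibition referenced to agonist-plus-DMSO and known-inhibitor wells.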
# human TLR8 = target: T2, human TLR8 (Homo sapiens, UniProt Q9NR97); experiment: TLR8 inhibition reporter assay (HEK-Blue cells, SEAP reporter, R848 stimulation); conditions: HEK-Blue cells overexpressing human TLR8, SEAP reporter, R848 15.9 μM
# T2 construct: host or cells: HEK-Blue cells (HEK293-derived reporter line)
# T2 sequence (Q9NR97 27-1041): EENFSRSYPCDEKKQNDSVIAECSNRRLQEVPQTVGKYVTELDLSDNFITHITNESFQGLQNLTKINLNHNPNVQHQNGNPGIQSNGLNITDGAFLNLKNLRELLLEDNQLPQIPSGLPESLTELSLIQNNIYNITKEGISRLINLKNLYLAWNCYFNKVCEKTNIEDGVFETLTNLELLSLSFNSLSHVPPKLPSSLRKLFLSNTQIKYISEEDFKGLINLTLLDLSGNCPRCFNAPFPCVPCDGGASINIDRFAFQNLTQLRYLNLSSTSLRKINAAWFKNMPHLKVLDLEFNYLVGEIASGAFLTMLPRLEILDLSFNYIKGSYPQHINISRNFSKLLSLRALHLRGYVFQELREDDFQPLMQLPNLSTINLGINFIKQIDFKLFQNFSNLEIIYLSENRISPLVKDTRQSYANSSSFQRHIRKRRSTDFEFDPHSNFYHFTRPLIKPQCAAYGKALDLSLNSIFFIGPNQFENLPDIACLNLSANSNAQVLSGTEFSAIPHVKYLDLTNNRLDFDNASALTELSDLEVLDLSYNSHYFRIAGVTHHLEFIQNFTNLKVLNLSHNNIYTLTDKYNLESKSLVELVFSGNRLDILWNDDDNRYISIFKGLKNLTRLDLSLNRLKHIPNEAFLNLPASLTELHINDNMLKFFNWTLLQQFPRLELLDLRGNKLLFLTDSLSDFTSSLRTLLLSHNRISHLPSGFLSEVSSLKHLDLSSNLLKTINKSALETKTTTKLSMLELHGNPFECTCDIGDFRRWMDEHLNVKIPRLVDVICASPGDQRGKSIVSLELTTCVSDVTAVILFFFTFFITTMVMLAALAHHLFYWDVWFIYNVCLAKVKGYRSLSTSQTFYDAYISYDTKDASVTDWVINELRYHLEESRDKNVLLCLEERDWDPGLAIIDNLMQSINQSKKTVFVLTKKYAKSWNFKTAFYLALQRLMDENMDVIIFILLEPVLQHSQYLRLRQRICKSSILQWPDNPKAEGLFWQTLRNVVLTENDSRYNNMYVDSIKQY
# Procedure, shortened: as §1
# human TLR9 = target: T3, human TLR9 (Homo sapiens, UniProt Q9NR96); experiment: TLR9 inhibition reporter assay (HEK-Blue cells, SEAP reporter, ODN2006 stimulation); conditions: HEK-Blue cells overexpressing human TLR9, SEAP reporter, ODN2006 5 nM
# T3 construct: host or cells: HEK-Blue cells (HEK293-derived reporter line)
# T3 sequence (Q9NR96 26-1032): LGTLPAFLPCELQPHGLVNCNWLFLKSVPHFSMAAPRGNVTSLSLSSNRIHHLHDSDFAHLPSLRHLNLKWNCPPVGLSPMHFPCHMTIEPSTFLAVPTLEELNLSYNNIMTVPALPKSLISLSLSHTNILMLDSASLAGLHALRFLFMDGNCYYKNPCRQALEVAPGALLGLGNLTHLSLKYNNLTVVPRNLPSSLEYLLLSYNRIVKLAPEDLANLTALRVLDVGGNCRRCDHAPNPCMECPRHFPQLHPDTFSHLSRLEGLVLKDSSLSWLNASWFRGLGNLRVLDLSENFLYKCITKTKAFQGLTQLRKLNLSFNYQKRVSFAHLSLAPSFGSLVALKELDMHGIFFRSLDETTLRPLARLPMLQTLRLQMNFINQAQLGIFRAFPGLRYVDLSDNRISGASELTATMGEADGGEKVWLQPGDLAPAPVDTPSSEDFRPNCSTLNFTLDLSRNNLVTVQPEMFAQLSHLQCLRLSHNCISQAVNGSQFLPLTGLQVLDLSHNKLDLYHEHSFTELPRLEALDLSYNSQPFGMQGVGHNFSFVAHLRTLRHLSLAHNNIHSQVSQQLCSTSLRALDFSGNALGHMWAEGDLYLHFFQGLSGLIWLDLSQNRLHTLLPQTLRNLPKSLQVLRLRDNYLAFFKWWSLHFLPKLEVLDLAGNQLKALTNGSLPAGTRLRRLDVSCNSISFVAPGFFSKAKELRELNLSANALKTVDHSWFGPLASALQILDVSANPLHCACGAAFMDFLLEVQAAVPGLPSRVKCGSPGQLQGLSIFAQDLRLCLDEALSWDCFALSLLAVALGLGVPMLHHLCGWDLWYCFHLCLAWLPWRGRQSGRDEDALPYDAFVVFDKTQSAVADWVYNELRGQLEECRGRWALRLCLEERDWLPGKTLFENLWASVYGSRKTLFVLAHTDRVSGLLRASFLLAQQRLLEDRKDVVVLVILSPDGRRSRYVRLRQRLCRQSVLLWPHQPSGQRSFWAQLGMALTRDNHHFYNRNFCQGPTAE
# Procedure, shortened: as §1
SMILES,IC50 (human TLR7),IC50 (human TLR8),IC50 (human TLR9)
"CC(C)c1c(-c2ccnc3[nH]ncc23)[nH]c2ccc(C3CCN(C(=O)CN(C)C)CC3)cc12 [Example 449, 2-(dimethylamino)-1-(4-(3-isopropyl-2-(1H-pyrazolo[3,4-b]pyridin-4-yl)-1H-indol-5-yl)piperidin-1-yl)ethanone]",< 0.1 µM,< 0.1 µM,1 to 50 µM
"CC(C)c1c(-c2cnc3ccnn3c2)[nH]c2ccc(C3CCN(Cc4cnn(C)c4)CC3)cc12 [Example 932, 6-(3-isopropyl-5-(1-((1-methyl-1H-pyrazol-4-yl)methyl)piperidin-4-yl)-1H-indol-2-yl)pyrazolo[1,5-a]pyrimidine]",0.1 to 1 µM,1 to 50 µM,0.1 to 1 µM
"Cc1cc(-c2[nH]c3ccc(C4CCN(C(=O)CN5CC6(COC6)C5)CC4)cc3c2C(C)C)cn2nnnc12 [Example 471, 1-(4-(3-isopropyl-2-(8-methyltetrazolo[1,5-a]pyridin-6-yl)-1H-indol-5-yl)piperidin-1-yl)-2-(2-oxa-6-azaspiro[3.3]heptan-6-yl)ethan-1-one]",< 0.1 µM,< 0.1 µM,1 to 50 µM
"Cc1cn2cc(-c3[nH]c4ccc(C5CCN(C(C)C)CC5)cc4c3C(C)C)cc(C(F)(F)F)c2n1 [Example 943, 6-(3-isopropyl-5-(1-isopropylpiperidin-4-yl)-1H-indol-2-yl)-2-methyl-8-(trifluoromethyl)imidazo[1,2-a]pyridine]",< 0.1 µM,0.1 to 1 µM,0.1 to 1 µM
"CNC(=O)CN1CCC(c2ccc3[nH]c(-c4ccc5nccn5c4)c(C(C)C)c3c2)CC1 [Example 403, 2-(4-(2-(imidazo[1,2-a]pyridin-6-yl)-3-isopropyl-1H-indol-5-yl)piperidin-1-yl)-N-methylacetamide]",< 0.1 µM,< 0.1 µM,1 to 50 µM
"CC(C)c1c(-c2ccnc3[nH]ncc23)[nH]c2ccc(C3CCN(Cc4nccc5ccccc45)CC3)cc12 [Example 910, 1-((4-(3-isopropyl-2-(1H-pyrazolo[3,4-b]pyridin-4-yl)-1H-indol-5-yl)piperidin-1-yl)methyl)isoquinoline]",0.1 to 1 µM,0.1 to 1 µM,1 to 50 µM
"Cc1cc(-c2[nH]c3ccc(C4CCN(C(=O)CN(C)C)CC4)cc3c2C(C)C)cc2cnnn12 [Example 488, 2-(dimethylamino)-1-(4-(3-isopropyl-2-(7-methyl-[1,2,3]triazolo[1,5-a]pyridin-5-yl)-1H-indol-5-yl)piperidin-1-yl)ethan-1-one]",< 0.1 µM,< 0.1 µM,1 to 50 µM
"Cc1cc(-c2[nH]c3ccc(C4CCN(Cc5ccn(C)n5)CC4)cc3c2C(C)C)cc2cnnn12 [Example 891, 5-(3-isopropyl-5-(1-((1-methyl-1H-pyrazol-3-yl)methyl)piperidin-4-yl)-1H-indol-2-yl)-7-methyl-[1,2,3]triazolo[1,5-a]pyridine]",< 0.1 µM,< 0.1 µM,0.1 to 1 µM
"CNC(=O)CN1CCC(c2ccc3[nH]c(-c4cc(C)c5ncsc5n4)c(C(C)C)c3c2)CC1 [Example 406, 2-(4-(3-isopropyl-2-(7-methylthiazolo[5,4-b]pyridin-5-yl)-1H-indol-5-yl)piperidin-1-yl)-N-methylacetamide]",< 0.1 µM,< 0.1 µM,1 to 50 µM
"Cc1c(-c2ncnn3cccc23)[nH]c2ccc(C3CCN(C4CCN(C(C)C)CC4)CC3)cc12 [Example 806, 4-(5-(1′-isopropyl-[1,4′-bipiperidin]-4-yl)-3-methyl-1H-indol-2-yl)pyrrolo[2,1-f][1,2,4]triazine]",1 to 50 µM,< 0.1 µM,< 0.1 µM
"CNC(=O)CN1CCC(c2ccc3[nH]c(-c4cc(OC)n5cc(C)nc5c4)c(C(C)C)c3c2)CC1 [Example 335, 2-(4-(3-isopropyl-2-(5-methoxy-2-methylimidazo[1,2-a]pyridin-7-yl)-1H-indol-5-yl)piperidin-1-yl)-N-methylacetamide]",0.1 to 1 µM,1 to 50 µM,1 to 50 µM
"CC(C)c1c(-c2ccnc3[nH]ncc23)[nH]c2cc(F)c(C3CCNCC3)cc12 [Example 253, 4-(6-fluoro-3-isopropyl-5-(piperidin-4-yl)-1H-indol-2-yl)-1H-pyrazolo[3,4-b]pyridine]",< 0.1 µM,< 0.1 µM,0.1 to 1 µM
"CCc1c(-c2ccnc3[nH]ncc23)[nH]c2ccc(C3CCN(Cc4cscn4)CC3)cc12 [Example 927, 4-((4-(3-ethyl-2-(1H-pyrazolo[3,4-b]pyridin-4-yl)-1H-indol-5-yl)piperidin-1-yl)methyl)thiazole]",< 0.1 µM,< 0.1 µM,1 to 50 µM
"CC(C)c1c(-c2cc(Cl)cc3nccn23)[nH]c2ccc(C3CCNCC3)cc12 [Example 127, 7-chloro-5-(3-isopropyl-5-(piperidin-4-yl)-1H-indol-2-yl)imidazo[1,2-a]pyridine]",< 0.1 µM,< 0.1 µM,0.1 to 1 µM
